Experimental data from US12398154B2, “Azaquinazoline pan-KRas inhibitors” (Mirati Therapeutics, Inc., priority 2020, dated 2025).

Key:
KRas G12R = KRas G12R (Homo sapiens, UniProt P01116, G12R); test: biochemical;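 also: TR-FRET displacement assay of compound binding to KRas, read after one hour at room temperature, potency from a four-parameter fit of percent-of-control values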
Procedure: (§5) The ability of a compound to bind to KRas was measured using a TR-FRET displacement assay. […] After a 60-minute incubation at room temperature, the reaction was measured using a BMG LABTECH CLARIO star Plus via TR-FRET. […] The POC values were fit to a 4-parameter IC50 equation and the IC50 value reported.

[1] = test system: phospho-ERK in AsPC-1 (G12D) cells; test: Inhibition of KRas-mediated phosphorylation of ERK (in-cell western); type: cell-based; settings: Homo sapiens, ASPC1, 3 h, 3 hours compound, phospho-ERK normalized to GAPDH
Procedure: (§1) Diluted compounds were then added in a final concentration of 0.5% DMSO. After 3 hours, 50 μL of 4.0% formaldehyde was added and the plates incubated at room temperature for 20 minutes. The plates were then dumped and permeabilized with 150 μL of ice cold 100% methanol for 10 minutes.
(§2) The amount of phospho-ERK was determined using an antibody specific for the phosphorylated form of ERK and compared to the amount of GAPDH. […] The plates were incubated overnight at 4° C. The plates were washed 3× with 150 uL PBS+0.1% Tween 20.
(§3) The plates were washed 3× with 150 uL PBS+0.1% Tween 20. Plates were imaged dry on a Li-COR Odyssey CLX plate reader.
(§4) The phospho-ERK (Thr202/Tyr204) signal was normalized to the GAPDH signal for each well and percent of DMSO control values were calculated. IC50 values were generated using a 4-parameter fit of the dose response curve.

KRas G12D = KRas G12D (Homo sapiens, UniProt P01116, G12D); test: biochemical;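 also: TR-FRET displacement binding assay on KRas, read after a one-hour incubation at room temperature, IC50 fitted from percent-of-control values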
Procedure: as §5

pERK in PSN1 cells = test: Inhibition of KRas phosphorylation of ERK (Cisbio HTRF pERK assay); settings: Homo sapiens, PSN1, 3 h, read-out: Inhibition (HTRF IC50) of KRas-mediated Phosphorylation of ERK, PSN1
KRas G12V = KRas G12V (Homo sapiens, UniProt P01116, G12V); test: biochemical;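 also: KRas binding measured by TR-FRET displacement at room temperature, IC50 fitted from percent of control values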
Procedure: as §5

pERK in MKN1 cells = test: Inhibition of KRas phosphorylation of ERK (Cisbio HTRF pERK assay); settings: Homo sapiens, MKN-1, 3 h, read-out: Inhibition (HTRF IC50) of KRas-mediated Phosphorylation of ERK, MKN1
KRas G12A = KRas G12A (Homo sapiens, UniProt P01116, G12A); test: biochemical;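 also: binding to KRas measured by TR-FRET displacement after one hour at room temperature, IC50 from a four-parameter fit of percent-of-control values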
Procedure: as §5

pERK in ASPC1 cells = test: Inhibition of KRas phosphorylation of ERK (Cisbio HTRF pERK assay); settings: Homo sapiens, ASPC1, read-out: Inhibition (HTRF IC50) of KRas-mediated Phosphorylation of ERK, AsPC-1
Procedure: (§6) To harvest cells from flask using 0.05% Trypsin/EDTA solution. Add 10 mL of media to stop trypsinizing. Pipette the cells into a conical bottom 50 mL centrifuge tube and centrifuge 5 min×1000 rpm. • 2. Re-suspend the cell pellet in media, take a cell count, and then adjust the cell density using fresh media. • 3. Seed 6,000 cells into cell culture plate with 50 μL media. […] Incubate cell plate overnight in a 37° C., 5% CO2 incubator. • Compound titrations • 1. Use Tecan to complete the compound addition. Compounds start from 10 uM top, 3-fold dilution, and 10 doses. The final DMSO concentration is 0.8%. Dispensed 0.2 uM Trametinib as Min control. • 2. Incubate cell plate for 3 hrs in the incubator. • Detection with cisbio pERK HTRF kit • 1. […] At the end of the compound treatment, flick-off the media. • 3. Add 35 μL of lysis buffer per well using a Multidrop Combi. Then place on a plate agitator shaking at 300 rpm at 4° C. for 40 mins. • 4. Make up the HTRF antibody buffer. For each assay plate, mix 50 μL of d2-conjugate antibody with 950 μL of detection buffer. Similarly, mix 50 μL of Cryptate antibody with 950 μL of detection buffer. Then mix the two diluted antibodies together. • 5. Dispense 3.4 μL the antibody buffer to wells of an empty assay plate. Seal the plate and centrifuge plate 30 sec×1000 rpm. • 6. At the end of the 4° C. lysis, centrifuge the lysate plates 3 mins×1500 rpm. • 7. Use the Bravo to transfer 13.6 μL of lysate from cell culture plate to assay plate.
(§7) Then incubate assay plate for 2 hrs at room temperature. […] At the end of incubation, read plate on the Envision after centrifuging plate 30 sec× • 1000 rpm.

KRas G12S = KRas G12S (Homo sapiens, UniProt P01116, G12S); test: biochemical;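 also: TR-FRET displacement binding to KRas, read after one hour incubation at room temperature, IC50 from four-parameter fit of percent of control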
Procedure: as §5

pERK in H460 cells = test: Inhibition of KRas phosphorylation of ERK (Cisbio HTRF pERK assay); settings: Homo sapiens, NCI-H460, read-out: Inhibition (HTRF IC50) of KRas-mediated Phosphorylation of ERK, H460
Procedure: as §6, §7

KRas G12C = KRas G12C (Homo sapiens, UniProt P01116, G12C); test: biochemical;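 also: binding to KRas assessed by TR-FRET displacement after one hour incubation at room temperature, potency fitted from percent-of-control values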
Procedure: as §5

pERK in HCT116 cells = test: Inhibition of KRas phosphorylation of ERK (Cisbio HTRF pERK assay); settings: Homo sapiens, HCT-116, read-out: Inhibition (HTRF IC50) of KRas-mediated Phosphorylation of ERK, HCT116
KRas WT = KRas WT (Homo sapiens, UniProt P01116); test: biochemical;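 also: binding to KRas read as TR-FRET displacement after a one-hour room-temperature incubation, IC50 derived from percent-of-control values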
Procedure: as §5

pERK in H727 cells = test: Inhibition of KRas phosphorylation of ERK (Cisbio HTRF pERK assay); settings: Homo sapiens, NCI-H727, read-out: Inhibition (HTRF IC50) of KRas-mediated Phosphorylation of ERK, H727
[2] = test system: phospho-ERK in NCI-H460 (Q61H) cells; test: Inhibition of KRas-mediated phosphorylation of ERK (in-cell western); type: cell-based; settings: Homo sapiens, NCI-H460, 3 h, 3 hours compound, phospho-ERK normalized to GAPDH
Procedure: as §1, §2, §3, §4

[3] = test system: phospho-ERK in NCI-H727 (G12V) cells; test: as above; type: cell-based; settings: Homo sapiens, NCI-H727, 3 h, 3 hours compound, phospho-ERK normalized to GAPDH
Procedure: as §1, §2, §3, §4

KRas G12V, sequence (P01116 1-169 isoform P01116-2 G12V): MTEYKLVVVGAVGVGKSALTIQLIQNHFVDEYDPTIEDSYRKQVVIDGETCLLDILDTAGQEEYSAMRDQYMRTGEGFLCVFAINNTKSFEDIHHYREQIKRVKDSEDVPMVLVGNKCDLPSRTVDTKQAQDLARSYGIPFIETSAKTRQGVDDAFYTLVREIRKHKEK
KRas G12A, sequence (P01116 1-169 isoform P01116-2 G12A): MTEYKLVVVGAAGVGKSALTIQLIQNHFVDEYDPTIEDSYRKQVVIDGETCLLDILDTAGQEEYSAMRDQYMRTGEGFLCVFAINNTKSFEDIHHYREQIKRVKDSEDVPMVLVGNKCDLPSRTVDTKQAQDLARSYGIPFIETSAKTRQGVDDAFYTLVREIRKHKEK
KRas WT, sequence (P01116 1-169 isoform P01116-2): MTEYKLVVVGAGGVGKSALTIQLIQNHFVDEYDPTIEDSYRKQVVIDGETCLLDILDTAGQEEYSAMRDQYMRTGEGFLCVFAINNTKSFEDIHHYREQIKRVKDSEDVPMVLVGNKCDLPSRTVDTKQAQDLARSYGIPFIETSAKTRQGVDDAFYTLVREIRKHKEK
KRas G12R, sequence (P01116 1-169 isoform P01116-2 G12R): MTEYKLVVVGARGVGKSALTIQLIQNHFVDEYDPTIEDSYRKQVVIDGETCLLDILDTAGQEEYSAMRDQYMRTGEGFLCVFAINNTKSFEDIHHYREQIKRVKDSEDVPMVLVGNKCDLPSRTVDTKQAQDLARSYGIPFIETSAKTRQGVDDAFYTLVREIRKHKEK
KRas G12D, sequence (P01116 1-169 isoform P01116-2 G12D): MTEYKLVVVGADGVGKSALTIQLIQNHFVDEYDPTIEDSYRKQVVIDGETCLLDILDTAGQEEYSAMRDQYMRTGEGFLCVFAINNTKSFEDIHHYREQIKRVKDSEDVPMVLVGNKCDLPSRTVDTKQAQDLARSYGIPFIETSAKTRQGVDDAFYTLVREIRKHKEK
KRas G12S, sequence (P01116 1-169 isoform P01116-2 G12S): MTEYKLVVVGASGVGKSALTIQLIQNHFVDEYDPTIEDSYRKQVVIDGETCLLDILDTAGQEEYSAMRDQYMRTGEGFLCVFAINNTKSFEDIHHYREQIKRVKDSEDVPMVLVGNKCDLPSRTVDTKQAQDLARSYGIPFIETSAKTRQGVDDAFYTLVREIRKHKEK
KRas G12C, sequence (P01116 1-169 isoform P01116-2 G12C): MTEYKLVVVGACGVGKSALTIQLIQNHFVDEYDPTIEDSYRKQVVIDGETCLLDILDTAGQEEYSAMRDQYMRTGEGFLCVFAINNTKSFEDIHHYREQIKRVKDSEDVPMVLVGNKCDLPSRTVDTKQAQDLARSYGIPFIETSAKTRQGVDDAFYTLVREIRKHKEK

| SMILES | IC50 (KRas G12R) [nM] | IC50 [1] [nM] | IC50 (KRas G12D) [nM] | IC50 (pERK in PSN1 cells) [nM] | IC50 (KRas G12V) [nM] | IC50 (pERK in MKN1 cells) [nM] | IC50 (KRas G12A) [nM] | IC50 (pERK in ASPC1 cells) [nM] | IC50 (KRas G12S) [nM] | IC50 (pERK in H460 cells) [nM] | IC50 (KRas G12C) [nM] | IC50 (pERK in HCT116 cells) [nM] | IC50 (KRas WT) [nM] | IC50 (pERK in H727 cells) [nM] | IC50 [2] [nM] | IC50 [3] [nM] |
| --- | --- | --- | --- | --- | --- | --- | --- | --- | --- | --- | --- | --- | --- | --- | --- | --- |
| C#Cc1c(F)ccc2cc(O)cc(-c3ncc4c(N5CCC[C@](C)(O)C5)nc(OC[C@@]56CCCN5C[C@H](F)C6)nc4c3F)c12 [Example 10] | 3 | 297 | ≤ 2 | 3340 | ≤ 2 | 13 | – | – | – | – | – | – | – | – | – | – |
| CCc1c(F)ccc2cc(O)cc(-c3ncc4c(N5CCC[C@@](C)(O)C5)nc(OC[C@@H]5C[C@@H](OC(=O)NC)CN5C)nc4c3F)c12 [Example 12, (3R,5S)-5-(((7-(8-ethyl-7-fluoro-3-hydroxy)naphthalen-1-yl)-8-fluoro-4-((R)-3-hydroxy-3-methylpiperidin-1-yl)pyrido[4,3-d]pyrimidin-2-yl)oxy)methyl)-1-methylpyrrolidin-3-yl methylcarbamate] | 4 | 497 | 3 | ≥ 10000 | 3 | 26 | – | – | – | – | – | – | – | – | – | – |
| CCc1c(F)ccc2cc(O)cc(-c3ncc4c(N5CCCC6(CC(=O)NC6=O)C5)nc(OC[C@@]56CCCN5C[C@H](F)C6)nc4c3F)c12 (stereo partly drawn) [Example 318, 7-(7-(8-ethyl-7-fluoro-3-hydroxynaphthalen-1-yl)-8-fluoro-2-(((2R,7aS)-2-fluorohexahydro-1H-pyrrolizin-7a-yl)methoxy)pyrido[4,3-d]pyrimidin-4-yl)-2,7-diazaspiro[4.5]decane-1,3-dione] | ≤ 2 | – | ≤ 2 | 877 | ≤ 2 | 13 | ≤ 2 | 133 | ≤ 2 | 65 | ≤ 2 | 60 | ≤ 2 | 69 | – | – |
| CCc1c(F)ccc2cc(O)cc(-c3ncc4c(N5C[C@@H]6C[C@H](C5)[C@H](O)C6)nc(OCC5(CN6CCCC6)CC5)nc4c3F)c12 [Example 320, (1R,5R,6R)-3-(7-(8-ethyl-7-fluoro-3-hydroxynaphthalen-1-yl)-8-fluoro-2-((1-(pyrrolidin-1-ylmethyl)cyclopropyl)methoxy)pyrido[4,3-d]pyrimidin-4-yl)-3-azabicyclo[3,2,1]octan-6-ol] | 3 | – | 3 | 5180 | ≤ 2 | 10 | ≤ 2 | 115 | ≤ 2 | 100 | ≤ 2 | 65 | ≤ 2 | 82 | – | – |
| O=S1(=O)NCC2(CCCN(c3nc(OC[C@@]45CCCN4C[C@H](F)C5)nc4c(F)c(-c5cc(O)cc6ccc(F)c(Cl)c56)ncc34)C2)N1 (stereo partly drawn) [Example 417, 7-(7-(8-chloro-7-fluoro-3-hydroxynaphthalen-1-yl)-8-fluoro-2-(((2R,7aS)-2-fluorohexahydro-1H-pyrrolizin-7a-yl)methoxy)pyrido[4,3-d]pyrimidin-4-yl)-2-thia-1,3,7-triazaspiro[4.5]decan 2,2-dioxide] | ≤ 2 | – | ≤ 2 | 110 | ≤ 2 | 20 | – | 182 | – | 63 | ≤ 2 | 79 | ≤ 2 | 57 | – | – |
| Oc1cc(-c2ncc3c(N4CC5CC(O)CC4C5)nc(OC[C@@]45CCCN4C[C@H](F)C5)nc3c2F)c2c(Cl)c(F)ccc2c1 (stereo partly drawn) [Example 422, 6-(7-(8-chloro-7-fluoro-3-hydroxynaphthalen-1-yl)-8-fluoro-2-(((2R,7aS)-2-fluorohexahydro-1H-pyrrolizin-7a-yl)methoxy)pyrido[4,3-d]pyrimidin-4-yl)-6-azabicyclo[3.2.1]octan-3-ol] | 5 | – | 7 | 1810 | ≤ 2 | 26 | – | 430 | – | 303 | – | 539 | – | 112 | – | – |
| OCC1COCCN(c2nc(OCC34CCCN3CCC4)nc3c(F)c(-c4cc(O)cc5ccc(F)c(F)c45)ncc23)C1 (stereo not drawn) [Example 457, 5,6-difluoro-4-(8-fluoro-2-((hexahydro-1H-pyrrolizin-7a-yl)methoxy)-4-(6-(hydroxymethyl)-1,4-oxazepan-4-yl)pyrido[4,3-d]pyrimidin-7-yl)naphthalen-2-ol] | 10 | – | 31 | – | 6 | – | – | – | – | – | – | – | – | – | 9410 | 3950 |
| CCc1cccc2cc3[nH]ncc3c(-c3ncc4c(N5CCC[C@@](C)(O)C5)nc(OC[C@@]56CCCN5C[C@H](F)C6)nc4c3F)c12 [Example 473, (3R)-1-(7-(5-ethyl-1H-benzo[f]indazol-4-yl)-8-fluoro-2-(((2R,7aS)-2-fluorohexahydro-1H-pyrrolizin-7a-yl)methoxy)pyrido[4,3-d]pyrimidin-4-yl)-3-methylpiperidin-3-ol] | 14 | – | 11 | – | 8 | – | 8 | – | 9 | – | 9 | – | 10 | – | 325 | 320 |
| CCc1c(F)ccc2cc(O)cc(-c3ncc4c(N5CCCC6(C5)CS(=O)(=O)C6)nc(OC[C@@]56CCCN5C[C@H](F)C6)nc4c3F)c12 [Example 481, 6-(7-(8-ethyl-7-fluoro-3-hydroxynaphthalen-1-yl)-8-fluoro-2-(((2R,7aS)-2-fluorohexahydro-1H-pyrrolizin-7a-yl)methoxy)pyrido[4,3-d]pyrimidin-4-yl)-2-thia-6-azaspiro[3.5]nonane 2,2-dioxide] | 7 | – | 4 | 5410 | 4 | 49 | – | 387 | – | 827 | – | 3150 | – | 643 | – | – |
| CCc1c(F)ccc2cc(O)cc(-c3ncc4c(NCC5CNS(=O)(=O)N5)nc(OC[C@@]56CCCN5C[C@H](F)C6)nc4c3F)c12 (stereo partly drawn) [Example 494, 3-(((7-(8-ethyl-7-fluoro-3-hydroxynaphthalen-1-yl)-8-fluoro-2-(((2R,7aS)-2-fluorohexahydro-1H-pyrrolizin-7a-yl)methoxy)pyrido[4,3-d]pyrimidin-4-yl)amino)methyl)-1,2,5-thiadiazolidine 1,1-dioxide] | ≤ 2 | – | 3 | ≥ 10000 | ≤ 2 | 135 | – | 354 | – | 982 | – | 2170 | – | 795 | – | – |
| CCc1c(F)ccc2cc(O)cc(-c3ncc4c(N5CCCn6nc(C(=O)NCCO)cc6C5)nc(OC[C@@]56CCCN5C[C@H](F)C6)nc4c3F)c12 [Example 506, 5-(7-(8-ethyl-7-fluoro-3-hydroxynaphthalen-1-yl)-8-fluoro-2-(((2R,7aS)-2-fluorotetrahydro-1H-pyrrolizin-7a(5H)-yl)methoxy)pyrido[4,3-d]pyrimidin-4-yl)-N-(2-hydroxyethyl)-5,6,7,8-tetrahydro-4H-pyrazolo[1,5-a][1,4]diazepine-2-carboxamide] | ≤ 2 | – | ≤ 2 | ≥ 10000 | ≤ 2 | 703 | – | 302 | – | 8910 | – | ≥ 10000 | – | 2220 | – | – |
